Consider 17 compounds from ChEMBL document CHEMBL1255533, “PKI-179: an orally efficacious dual phosphatidylinositol-3-kinase (PI3K)/mammalian target of rapamycin (mTOR) inhibitor” (Bioorg Med Chem Lett, 2010).

SMILES strings stand for the structures. pIC50: −log10 of the molar value.

As usually defined, the pIC50 is the IC50 on a negative log10 scale, so that one unit is a factor of ten.

One assay has as its system PC-3. In words: Antiproliferative activity against human PC3 cells. The assay is classed as functional, cell-based.
In assay [1] the target is Serine/threonine-protein kinase mTOR (Homo sapiens, UniProt P42345). In words: Inhibition of mTOR.
The next assay concerns MDA-MB-361. In words: Antiproliferative activity against human MDA-MB-361 cells. The assay is classed as functional, cell-based.
Assay [2] addresses Phosphatidylinositol 4,5-bisphosphate 3-kinase catalytic subunit alpha isoform (Homo sapiens, UniProt P42336). In words: Inhibition of PI3K-alpha.
The target of assay [3] is Phosphatidylinositol 4,5-bisphosphate 3-kinase catalytic subunit gamma isoform (Homo sapiens, UniProt P48736). In words: Inhibition of PI3K-gamma.
Phosphatidylinositol 4,5-bisphosphate 3-kinase catalytic subunit gamma isoform, sequence (P48736 whole entry, canonical isoform): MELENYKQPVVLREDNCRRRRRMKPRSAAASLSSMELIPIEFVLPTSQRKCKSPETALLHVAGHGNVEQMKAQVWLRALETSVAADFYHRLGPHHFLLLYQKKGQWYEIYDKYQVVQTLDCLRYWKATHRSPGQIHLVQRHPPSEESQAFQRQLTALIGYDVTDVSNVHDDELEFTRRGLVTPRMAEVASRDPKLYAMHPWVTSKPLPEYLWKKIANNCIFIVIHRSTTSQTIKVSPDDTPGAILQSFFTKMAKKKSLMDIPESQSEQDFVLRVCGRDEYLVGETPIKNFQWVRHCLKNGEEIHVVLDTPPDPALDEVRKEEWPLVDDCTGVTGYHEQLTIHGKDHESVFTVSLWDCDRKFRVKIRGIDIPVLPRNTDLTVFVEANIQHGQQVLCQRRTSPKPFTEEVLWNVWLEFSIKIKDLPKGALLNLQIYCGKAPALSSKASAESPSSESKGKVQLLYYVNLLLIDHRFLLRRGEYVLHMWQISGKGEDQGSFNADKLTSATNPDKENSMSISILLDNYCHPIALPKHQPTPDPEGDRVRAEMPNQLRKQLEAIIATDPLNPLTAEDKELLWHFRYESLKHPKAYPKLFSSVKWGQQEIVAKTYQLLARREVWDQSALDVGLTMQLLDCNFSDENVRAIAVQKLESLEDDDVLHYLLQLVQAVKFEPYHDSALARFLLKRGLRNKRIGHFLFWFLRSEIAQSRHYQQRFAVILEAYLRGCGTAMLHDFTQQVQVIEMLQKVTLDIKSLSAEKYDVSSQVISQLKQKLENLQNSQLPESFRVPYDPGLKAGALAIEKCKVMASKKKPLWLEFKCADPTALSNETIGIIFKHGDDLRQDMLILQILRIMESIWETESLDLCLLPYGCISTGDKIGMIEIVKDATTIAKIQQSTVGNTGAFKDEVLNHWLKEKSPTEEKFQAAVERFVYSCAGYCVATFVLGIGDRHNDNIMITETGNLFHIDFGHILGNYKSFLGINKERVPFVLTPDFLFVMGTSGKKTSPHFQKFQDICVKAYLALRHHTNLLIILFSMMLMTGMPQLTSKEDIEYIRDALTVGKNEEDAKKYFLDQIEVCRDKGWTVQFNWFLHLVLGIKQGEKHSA

Phosphatidylinositol 4,5-bisphosphate 3-kinase catalytic subunit alpha isoform, sequence (P42336 whole entry, canonical isoform): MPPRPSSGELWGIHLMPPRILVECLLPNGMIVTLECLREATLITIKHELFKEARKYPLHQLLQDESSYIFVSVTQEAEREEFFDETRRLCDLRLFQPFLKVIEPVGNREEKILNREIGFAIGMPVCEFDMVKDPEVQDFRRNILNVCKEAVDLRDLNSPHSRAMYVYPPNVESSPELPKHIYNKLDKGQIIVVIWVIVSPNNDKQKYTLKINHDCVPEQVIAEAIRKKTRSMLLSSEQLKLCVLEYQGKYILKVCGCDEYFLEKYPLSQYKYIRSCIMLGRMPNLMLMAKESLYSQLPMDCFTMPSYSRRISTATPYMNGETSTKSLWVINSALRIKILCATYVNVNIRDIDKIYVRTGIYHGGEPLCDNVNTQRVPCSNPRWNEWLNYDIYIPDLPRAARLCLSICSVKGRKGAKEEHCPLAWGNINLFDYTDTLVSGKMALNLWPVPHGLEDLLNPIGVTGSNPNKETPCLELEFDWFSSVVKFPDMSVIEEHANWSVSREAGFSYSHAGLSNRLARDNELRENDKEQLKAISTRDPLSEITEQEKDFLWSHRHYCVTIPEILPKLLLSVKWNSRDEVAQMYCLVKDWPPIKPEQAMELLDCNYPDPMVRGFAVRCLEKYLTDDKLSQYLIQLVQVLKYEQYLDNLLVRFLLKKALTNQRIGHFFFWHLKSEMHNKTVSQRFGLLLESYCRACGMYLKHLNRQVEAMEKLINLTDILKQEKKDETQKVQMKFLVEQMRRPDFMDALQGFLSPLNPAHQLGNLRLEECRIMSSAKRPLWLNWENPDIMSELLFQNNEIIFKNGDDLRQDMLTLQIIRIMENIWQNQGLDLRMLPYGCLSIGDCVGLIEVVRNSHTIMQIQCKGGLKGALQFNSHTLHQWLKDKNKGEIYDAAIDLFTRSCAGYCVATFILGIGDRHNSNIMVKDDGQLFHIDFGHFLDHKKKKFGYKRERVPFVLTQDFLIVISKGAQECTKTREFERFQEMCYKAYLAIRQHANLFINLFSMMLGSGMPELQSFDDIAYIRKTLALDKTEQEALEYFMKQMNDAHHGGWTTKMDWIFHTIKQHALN

On to `CN1CCN(c2ccc(NC(=O)Nc3ccc(-c4nc(N5CCOCC5)nc(N5C6CCC5COC6)n4)cc3)cc2)CC1`, for which the negative logarithm of the IC50 (pIC50) in the assay on PC-3 was 7.40; in assay [1], 8.96; in the assay with MDA-MB-361, 7.46.

As to `Cc1ccc(NC(=O)Nc2ccc(-c3nc(N4CCOCC4)nc(N4C5CCC4COC5)n3)cc2)cc1`, the negative-log IC50 (pIC50) with PC-3 was 6.52; in the assay on MDA-MB-361 it was 6.78.

Turning to `COc1ccc(NC(=O)Nc2ccc(-c3nc(N4CCOCC4)nc(N4C5CCC4COC5)n3)cc2)cc1OC`, the pIC50 was 7.87 in assay [2]; 5.90 in the assay on PC-3; 7.03 in assay [1]; 6.40 with MDA-MB-361; 6.45 in assay [3].

With `O=C(Nc1ccccc1)Nc1ccc(-c2nc(N3CCOCC3)nc(N3C4CCC3COC4)n2)cc1`, the negative logarithm of the IC50 (pIC50) was 7.74 in assay [2]; 6.83 with PC-3; 8.70 in assay [1]; 6.98 in the assay on MDA-MB-361; 7.29 in assay [3].

`CN(C)CCOc1ccc(NC(=O)Nc2ccc(-c3nc(N4CCOCC4)nc(N4C5CCC4COC5)n3)cc2)cc1`: the negative logarithm of the IC50 (pIC50) in assay [2] is 7.85; with PC-3, above 7.52; in the assay on MDA-MB-361, above 7.52.

`O=C(Nc1ccc(CO)cc1)Nc1ccc(-c2nc(N3CCOCC3)nc(N3C4CCC3COC4)n2)cc1`: the pIC50 with PC-3 was 7.55; in the assay on MDA-MB-361, 7.82.

For `CN1CCN(Cc2ccc(NC(=O)Nc3ccc(-c4nc(N5CCOCC5)nc(N5C6CCC5COC6)n4)cc3)cc2)CC1`, the negative-log IC50 (pIC50) in the assay on PC-3 was 7.51; with MDA-MB-361 it was 7.85.

As to `O=C(Nc1ccc(F)cc1)Nc1ccc(-c2nc(N3CCOCC3)nc(N3C4CCC3COC4)n2)cc1`, the pIC50 in the assay on PC-3 was 6.75; in assay [1] it was 8.72; in the assay on MDA-MB-361 it was 7.01.

In the case of `O=C(Nc1ccc(CCO)cc1)Nc1ccc(-c2nc(N3CCOCC3)nc(N3C4CCC3COC4)n2)cc1`, the pIC50 in the assay on PC-3 was 7.52; in the assay on MDA-MB-361, 7.66.

As to `N#Cc1ccc(NC(=O)Nc2ccc(-c3nc(N4CCOCC4)nc(N4C5CCC4COC5)n3)cc2)cc1`, the pIC50 with PC-3 was 5.44; in assay [1], 8.48; in the assay with MDA-MB-361, 6.46.

Consider `CN(C)c1ccc(NC(=O)Nc2ccc(-c3nc(N4CCOCC4)nc(N4C5CCC4COC5)n3)cc2)cc1`, for which the negative logarithm of the IC50 (pIC50) was 8.46 in assay [2]; below 6.00 with PC-3; 7.87 in assay [1]; below 6.00 in the assay on MDA-MB-361; 6.14 in assay [3].

Regarding `O=C(Nc1ccc(-c2nc(N3CCOCC3)nc(N3C4CCC3COC4)n2)cc1)Nc1cccnc1`, the pIC50 in the assay on PC-3 is 7.01; in the assay with MDA-MB-361, 7.14.

`O=C(Nc1ccc(-c2nc(N3CCOCC3)nc(N3C4CCC3COC4)n2)cc1)Nc1cncnc1`: the negative logarithm of the IC50 (pIC50) in assay [2] is 7.08; with PC-3, 6.86; in the assay with MDA-MB-361 it was 6.96; in assay [3], 6.62.

In the case of `O=C(Nc1ccc(-c2nc(N3CCOCC3)nc(N3C4CCC3COC4)n2)cc1)Nc1ccnnc1`, the negative-log IC50 (pIC50) is 7.55 in assay [2], 7.33 with PC-3 and 7.44 in the assay on MDA-MB-361.

On to `O=C(Nc1ccc(-c2nc(N3CCOCC3)nc(N3C4CCC3COC4)n2)cc1)Nc1ccc(-c2cccnc2)nc1`, for which the pIC50 in assay [2] is 7.40; in the assay on PC-3 it was 7.35; in assay [1], 8.46; in the assay on MDA-MB-361, 7.25; in assay [3], 7.36.

On to `O=C(Nc1ccc(-c2nc(N3CCOCC3)nc(N3C4CCC3COC4)n2)cc1)Nc1ccnc(Cl)c1`, for which the pIC50 in assay [2] was 7.64; in the assay with PC-3 it was 6.93; in the assay on MDA-MB-361, 7.03.

Turning to `O=C(Nc1ccncc1)Nc1ccc(-c2nc(N3CCOCC3)nc(N3C4COCC3[C@@H](O)C4)n2)cc1` (some centres not stated), the negative logarithm of the IC50 (pIC50) in assay [2] is 8.40; in the assay on PC-3 it was 7.10; in assay [1], 9.10; with MDA-MB-361, 7.49; in assay [3], 7.48.
